Tests used:
Ref-1/APE1 = target: T1, Ref-1/APE1 (Homo sapiens, UniProt P27695); assay: Ref-1/APE1 endonuclease activity in tumor cells; format: cell-based
T1 construct: endogenous in cells

[1] = test system: neuronal cultures derived from DRG; assay: pH2A.X immunoblotting in DRG neuronal cultures (Example 1); format: cell-based, rat
Procedure: (§1) Dorsal root ganglia (DRG) were dissected from all spinal levels of adult male (150-175 g) Sprague-Dawley rats (Envigo, Indianapolis, Ind.) and the cells were dissociated as previously described (Kelley et al., 2014). Briefly, the rats were euthanized by CO2 asphyxiation. DRGs were transferred into collagenase solution (1 mg/ml) and incubated for 1 hour at 37° C. The digested DRGs were then rinsed with growth medium, centrifuged and dissociated by mechanical agitation. Approximately 30,000 cells were plated into each well of 12-well culture plates. All culture dishes were precoated with poly-D-lysine and laminin. Cells were maintained in F-12 media supplemented with 10% horse serum, 2 mM glutamine, 100 μg/ml Normocin, 50 μg/ml penicillin, 50 μg/ml streptomycin, 50 μM 5-fluoro-2′-deoxyuridine, 150 μM uridine, and 30 ng/ml of NGF in 3% CO2 at 37° C. Growth medium was changed every other day.
(§2) Small interfering RNAs to APE1 (APE1siRNA) and scrambled siRNA (SCsiRNA) controls were used to decrease APE1 protein expression in sensory neuronal cell cultures and as controls, respectively, as described previously (Vasko et al., 2005, Jiang et al., 2008a). On day 3 in culture, the growth media was replaced with 0.5 ml of Opti-MEM 1 media containing 100 nM of APE1siRNA (5′-[…]-3′ (SEQ ID NO:1)) or SCsiRNA (5′-[…]-3′(SEQ ID NO:2)); (Vasko et al., 2005)) and 10 μl of the transfecting reagent, Neuroporter. On the next day, 0.5 ml of the growth media without antibiotics was added to each well, and after an additional 24 hours the media containing siRNA was replaced with normal growth media.
(§3) Lentiviral constructs containing (1) the CMV promoter, HA-tagged APE1, IRES, and enhanced green fluorescent protein (EGFP); or (2) CMV, IRES, and EGFP were developed. DNA sequencing confirmed the constructs in the pLenti6-R4R2-V5 plasmid containing WT-, C65-, or 226+177-APE1-IRES-EGFP. For lentiviral infections, DRG cells were cultured 5 days before 150 pfu/cell of the lentivirus was added to the media. Two days later, the virus was removed and the cells grown an additional 5 days in regular media.
Tissues or cells were harvested, lysed in RIPA buffer (Santa Cruz Biotechnology; Santa Cruz, Calif., USA), sonicated, and cleared of cellular debris by centrifuging at 4000 RPM for 2 minutes. Protein was quantified using Lowry assay, and electrophoresed in a 12% SDS-polyacrylamide gel. After electrophoresis, proteins were transferred to a PVDF membrane, and blocked with Tris-buffered saline containing 0.1% Tween-20 (TBST) and 5% nonfat dry milk for 1 hour at room temperature while gently agitating. Mouse monoclonal antihuman Ape1 antibodies (1:1000), mouse monoclonal anti-phospho H2AX antibodies (1:1000), mouse monoclonal anti-vinculin antibody (1:1000), and anti-Hemagglutinin (HA) antibody were added to the blocking solution and incubated for 2 hours at room temperature while gently agitating. Antibody binding was detected following appropriate secondary antibody methods using chemiluminescence. The density of the bands was measured using Quantity One software from Bio-Rad (Hercules, Calif.) and data expressed as density normalized to vinculin.

DRG = assay: Cisplatin ± APX3330 in neuroblastoma tumor-bearing mice; format: in vivo
Source text: Neuroblastoma cells were implanted subcutaneously into the right flanks of 6-wk old male NSG mice and allowed to proliferate until tumor volumes ≥150 mm^3. Mice were then randomized for treatment with cisplatin±APX3330 treatment.

[2] = test system: neuronal cultures derived from DRG; assay: CGRP release from DRG neuronal cultures (Example 1); format: cell-based, rat
Procedure: as §1, §2, §3
After neuronal cultures were treated with the appropriate drugs, the cultures were washed once with HEPES buffer consisting of (in mM) 25 HEPES, 135 NaCl, 3.5 KCl, 2.5 CaCl2, 1 MgCl2, 3.3 D-glucose, and 0.1% bovine serum albumin, pH 7.4 and maintained at 37° C. They were then incubated for successive 10-minute intervals with 0.4 ml of HEPES buffer alone (basal release), with buffer containing 30 nM capsaicin, then with buffer alone (to assess return to basal release). After each incubation, the buffer was removed and the amount of immunoreactive CGRP in each sample was measured using radioimmunoassay as previously described (Chen et al., 1996). After the release experiment, the cells in each well were in 0.4 ml of 0.1 M HCl10 minutes and an aliquot taken to measure total CGRP content in the cultures using radioimmunoassay. Total content (fmol/well) was calculated by adding the total amount released in all incubations to the amount measured in the cells. The release data is calculated as fmol released/well/10 minutes.

NFκB = assay: NF-κB luciferase reporter transactivation assay; format: cell-based; details: read-out: inhibition of NFκB binding to the reporter construct, IC50
Procedure: Reporter assays were performed as previously described (Georgiadis et al., 2008; Kelley et al., 2011; Cardoso et al., 2012b; Luo et al., 2012). Cells were transfected with NF-κB-Luciferase construct containing an NF-κB-response promoter and driving the expression of a luciferase gene and a Renilla luciferase control reporter vector pRL-CMV. After a 24-hour transfection period, cells were lysed, and Firefly and Renilla luciferase activities were assayed using Renilla luciferase activity for normalization. All of the transfection experiments were performed in triplicate and repeated at least three times in independent experiments. Data are expressed as mean±standard error from a representative experiment, and Student's t tests were performed.

Pharmacokinetics (PK) = details: in vivo
Procedure: PK studies were performed in the IU Simon Cancer Center Clinical Pharmacology Analytical Core (CPAC), as previously described for E3330 (Fishel et al., 2011) and standards for the compounds used. P450 metabolism studies using human microsomes were also performed in CPAC directed by Dr. David Jones.

T1 sequence (P27695 whole entry): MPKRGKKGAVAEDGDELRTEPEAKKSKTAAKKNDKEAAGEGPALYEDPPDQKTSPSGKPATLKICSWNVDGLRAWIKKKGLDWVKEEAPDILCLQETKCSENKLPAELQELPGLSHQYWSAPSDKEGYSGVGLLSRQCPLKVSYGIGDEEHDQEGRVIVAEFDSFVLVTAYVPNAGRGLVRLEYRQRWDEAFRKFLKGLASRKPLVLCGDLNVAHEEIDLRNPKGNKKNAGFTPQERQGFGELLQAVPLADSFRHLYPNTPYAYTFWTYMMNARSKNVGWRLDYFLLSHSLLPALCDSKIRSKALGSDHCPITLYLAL

CCCCCCCCC/C(=C\C1=C(C)C(=O)C(OC)=C(OC)C1=O)C(=O)O [APX3330]
Ref-1/APE1 endonuclease activity (Ref-1/APE1): not observed in tumor cells
effect on LPS induction of pH2A.X ([1]; E3330 20 μM pretreatment, LPS 3 μg/ml 24 hours, SCsiRNA- and APE1siRNA-treated cultures): prevented the induction of pH2A.X
effect on MCP-1 induction of pH2A.X ([1]; E3330, SCsiRNA or APE1siRNA cultures, MCP-1 0.3 μg/ml 24 hours): prevented the induction of pH2A.X by MCP-1
cisplatin or oxaliplatin's tumor-killing efficacy (DRG; in vivo (data not shown)): did not affect cisplatin or oxaliplatin's tumor-killing efficacy in vivo
oxidative DNA damage in DRG neurons (DRG; in vivo (data not shown)): protects DRG neurons from oxidative DNA damage
neurotoxicity induced by systemic administration of cisplatin (DRG; tumor-bearing mice): attenuated neurotoxicity
effect on MCP-1-induced change in CGRP release ([2]; E3330, MCP-1 0.3 μg/ml): prevented the change in CGRP release induced by MCP-1 exposure
stimulated release of CGRP in LPS-treated cultures ([2]; SCsiRNA-treated cultures, LPS 3 μg/ml 24 hours plus APE1 expression or E3330): 9.7±0.8 % of total content
IC50 (NFκB): 45 µM
half-life (Pharmacokinetics (PK)): 3.6 h

From patent US11351130B2, “Prevention and reversal of inflammation induced DNA damage” (Indiana University Research and Technology Corporation, priority 2017, dated 2022)
